Laboratory results taken from patent US11235001B2, “RUNX inhibitor” (KYOTO UNIVERSITY, priority 2016, dated 2022).
Read-outs that look alike come from different tables or passages of the source.

Tests used:
[1] = test system: BCL11A, TRIM24, p53, p21, BAX, PUMA and MDM2; test: qRT-PCR of p53 suppressors and p53 target genes in MV4-11 cells; format: cell-based, human; conditions: 1 μM, 6 hours
Protocol: (§1) A total RNA was isolated with RNeasy mini kit (Qiagen) and reverse transcribed with Reverse script kit (TOYOBO) to generate cDNA. Real-time quantitative polymerase chain reaction (PCR) was carried out with 7500 Real-Time PCR System (Applied Biosystems) according to the manufacturer's instructions. Results were normalized to GAPDH levels. Relative expression levels were calculated using the 2-ΔΔCt method.

[2] = test system: BCL11A, TRIM24, p21, BAX, PUMA, MDM2, PARP, cleaved caspase-3; test: Immunoblotting of p53 pathway and apoptosis proteins in MV4-11 cells; format: cell-based, human; conditions: 1 μM, 24 hours
Protocol: Cells were washed twice with ice cold phosphate-buffered saline (PBS) and harvested in protein lysis buffer [50 mM Tris (pH 7.4), 100 mM NaCl, 0.1 mM EDTA, 1 mM phenylmethylsulfonyl fluoride, 1 mM β-glycerophosphate, 2.5 mM sodium pyrophosphate, 1 mM Na3VO4, lx protease inhibitor (Roche) and PhosSTOP (Roche)]. Whole cell extracts were separated by SDS-polyacrylamide gel electrophoresis (SDS-PAGE) and electrotransferred onto polyvinylidene difluoride membranes. Membranes were probed with the following antibodies: anti-Ctip1 antibody (Abcam, ab19487), anti-TRIM24 antibody (Bethyl Laboratories, Inc), anti-RUNX1 antibody (A-2), anti-GAPDH (FL-335), anti-p21 (C-19), anti-Bax (N-20) antibodies (Santa Cruz Biotechnology, Inc.), anti-RUNX2, anti-RUNX3, anti-p53 antibodies (Cell Signaling Technology), anti-CBFβ antibody (FL-182, Santa Cruz Biotechnology, Inc.), anti-cleaved caspase-3 antibody (5A1E, Cell Signaling Technology), anti-PARP antibody (46D11, Cell Signaling Technology). For secondary antibodies, anti-rabbit IgG, or anti-mosue IgG HRP-linked antibodies (Cell Signaling Technology) were used. Blots were detected using Chemi-Lumi One Super (nacalai tesque, Inc.) and ChemiDoc™ XRS+ Imager (Bio-Rad Laboratories, Inc.), as recommended by the manufacturers. Protein levels were quantified with Image Lab Software (Bio-Rad Laboratories, Inc.).
Briefly, MV4-11 cells were treated with 1 μM Chb-M′ or Chb-50 for 24 hours. The treated cells were dissolved in the protein lysis buffer. Whole cell extracts were resolved by SDS-polyacrylamide gel electrophoresis (SDS-PAGE) and transferred onto polyvinylidene difluoride membranes. The membranes were probed with each antibody. Blots were detected and quantified. As a control, the cells treated with DMSO were used.

SOS1 = test: qRT-PCR of SOS1 in MKN45 gastric cancer cells; format: cell-based, human; conditions: MKN45, 1 μM, 6 hours
Protocol: as §1
To the MKN45 gastric cancer cell line, 1 μM of Chb-M′ was administered. After 6 hours, the mRNA level of SOS1 was evaluated by RT-PCR method using qRT-PCR (see the above-described “Real-time quantitative PCR (qRT-PCR)”). As a control, DMSO was administered. In the figure, the mRNA expression level of SOS1 is shown as a value relative to that in the DMSO-treated group.

Mig6 = test: Western blotting of Mig6 in lung adenocarcinoma cells; format: cell-based, human; conditions: 1 μM, 24 hours
Protocol: Cells were washed twice with ice cold phosphate-buffered saline (PBS) and harvested in protein lysis buffer [50 mM Tris (pH 7.4), 100 mM NaCl, 0.1 mM EDTA, 1 mM phenylmethylsulfonyl fluoride, 1 mM β-glycerophosphate, 2.5 mM sodium pyrophosphate, 1 mM Na3VO4, lx protease inhibitor (Roche) and PhosSTOP (Roche)]. Whole cell extracts were separated by SDS-polyacrylamide gel electrophoresis (SDS-PAGE) and electrotransferred onto polyvinylidene difluoride membranes. […] Blots were detected using Chemi-Lumi One Super (nacalai tesque, Inc.) and ChemiDoc™ XRS+ Imager (Bio-Rad Laboratories, Inc.), as recommended by the manufacturers. Protein levels were quantified with Image Lab Software (Bio-Rad Laboratories, Inc.).
To LU99A cells and A549 cells, 1 μM Chb-M′ was administered. After 24 hours, the expression of Mig6 protein was evaluated by the Western blotting method (see the above-described “Immunoblotting”). […]

[3] = test system: medulloblastoma cell line DAOY; conditions: DAOY (SHH, TP53-mutated), 48 hours
GATA2, E2F5, and AR = test: qRT-PCR of prostatic adenocarcinoma-related factors in PC-3; format: cell-based, human; conditions: PC-3, 5 μM, 6 hours
Protocol: as §1
To prostatic adenocarcinoma cell line PC-3, 5 μM Chb-M′ was administered. After 6 hours, the mRNA levels of GATA2, E2F5, and AR (androgen receptors), which are important genes for proliferation of prostate cancer cells, were evaluated by qRT-PCR (see the above-described “Real-time quantitative PCR (qRT-PCR)”). As a control, DMSO was administered. In the figure, the mRNA expression levels of GATA2, E2F5, and AR are shown as values relative to those in the DMSO-treated group. As evident from FIG. 45, the expressions of GATA2, E2F5, and AR were suppressed by Chb-M′ at transcriptional levels.

THP-1 = conditions: THP-1, p53mut(+); for IC50: 48 hours

Compound: CN(C)CCCNC(=O)c1cc(NC(=O)c2cc(NC(=O)c3cc(NC(=O)c4cc(NC(=O)CCCNC(=O)c5nc(NC(=O)c6nc(NC(=O)c7cc(NC(=O)c8nc(NC(=O)CCNC(=O)CCCc9ccc(N(CCCl)CCCl)cc9)cn8C)cn7C)cn6C)cn5C)cn4C)cn3C)cn2C)cn1C [Chb-M′]
- Gene expressions of p53 suppressors BCL11A and TRIM24 [1]: down-regulated
- mRNA expression level of p53 [1]: unchanged
- mRNA expression levels of p21 and PUMA [1]: increased
- IC50 (NB4 (p53MT); culture time 48 hours): 357 nM
- IC50 (NB4 (p53MT); culture time 72 hours): 44.6 nM
- Cleaved form of PARP and cleaved caspase-3 (apoptosis) [2]: emergence
- Protein expression levels of p53 and downstream proteins (p21, BAX) [2]: increased
- Protein expression levels of suppressors of p53 (BCL11A and TRIM24) [2]: reduced
- Expression of SOS1 (mRNA) (SOS1): suppressed
- Expression level of Mig6 protein (Mig6; A549 cells): enhanced
- Expression level of Mig6 protein (Mig6; LU99A cells): enhanced
- IC50 [3]: 812 nM
- Expressions of GATA2, E2F5, and AR (mRNA) (GATA2, E2F5, and AR): suppressed
- CI (Fa = 0.5) (THP-1; concomitant use of Chb-M′ and PRIMA-1, Chou-Talalay, CI<1 synergism): 0.249
- IC50 (THP-1; read-out: IC50 (μM) of Chb-M′ in concomitant use with PRIMA-1 (5 μM), with 5 μM PRIMA-1): 0.5 µM
- IC50 (THP-1; read-out: IC50 (μM) of Chb-M′ single agent administration): > 100 µM
